Measured values reported in US20260146044A1, “AROMATIC COMPOUND, PHARMACEUTICAL COMPOSITION CONTAINING SAME, AND USE THEREOF” (Increland, priority 2023, published 2026).

Tests used:
[1] = test system: secretion levels of IL-6 in PBMC cells; assay: Inhibition of LPS+IL-1β-induced IL-6 secretion in PBMC (IL-6 ELISA); assay type: cell-based; conditions: human PBMC, 24 h compound pre-incubation, 20 h stimulation
Protocol: This experiment was carried out in RPMI 1640 medium containing 10% FBS/1% penicillin/streptomycin, with each of the compounds at an initial test concentration of 1 μM. The compound DMSO was dissolved to form a stock solution, which was gradiently diluted 5-fold with the culture medium to a 4× working solution concentration. The diluted solution was added to a 96-well plate with 50 μL per well. PBMC (batch No.: HPP20062307, Sichuan Hope Bio-tech Co., Ltd.) cells were counted, and diluted to a concentration of 2×10^6/mL. The diluted cells were added to the above compound-containing 96-well plate with 150 μL per well, fully mixed, and incubated in an incubator with 5% CO2 at 37° C. for 24 h. Then, LPS and […] were further added to final concentrations of 10 ng/mL and 20 ng/mL, respectively, and the cells were further incubated in the incubator with 5% CO2 at 37° C. for 20 h. Then, after centrifugation at 2,000 rpm for 4 min, the supernatant was diluted 110×, and detected using an IL-6 ELISA kit. An OD450 value was read, and converted to an IL-6 concentration based on a standard curve, to calculate an IC50 value by fitting a dose-effect curve using GraphPad 5.0.

[2] = test system: secretion levels of IL-6 in PBMC cells; assay: Inhibition of R848-induced IL-6 secretion in PBMC (IL-6 ELISA); assay type: cell-based; conditions: human PBMC, 20 h compound pre-incubation, 24 h stimulation
Protocol: This experiment was carried out in RPMI 1640 medium containing 10% FBS/1% penicillin/streptomycin, with each of the compounds at an initial test concentration of 1 μM. The compound DMSO was dissolved to form a stock solution, which was gradiently diluted 4-fold with the culture medium to a 4× working solution concentration. The diluted solution was added to a 96-well plate with 50 μL per well. PBMC (batch No.: HPP20062307, Sichuan Hope Bio-tech Co., Ltd.) cells were counted, and diluted to a concentration of 2×10^6/mL. The diluted cells were added to the above compound-containing 96-well plate with 150 μL per well, fully mixed, and incubated in an incubator with 5% CO2 at 37° C. for 20 h. Then, R848 was further added until a final concentration of […], and the cells were further incubated in the incubator with 5% CO2 at 37° C. for additional 24 h. Then, after centrifugation at 2,000 rpm for 4 min, the supernatant was diluted 110×, and detected using an IL-6 ELISA kit. An OD450 value was read, and converted to an IL-6 concentration based on a standard curve, to calculate an IC50 value by fitting a dose-effect curve using GraphPad 5.0.

Structure (SMILES)	IC50 [1] [nM]	IC50 [2] [nM]
Cc1nn(C2CCC(=O)NC2=O)c2cccc(C3CCN(CC4CCC(n5cc6cc(NC(=O)c7cnn8cccnc78)c(N7CCOCC7)cc6n5)CC4)CC3)c12 (stereo not drawn) [TM-26]	12.2	
COc1cc2nn([C@H]3CC[C@H](CN4CCC(c5cccc6c5c(C)nn6C5CCC(=O)NC5=O)CC4)CC3)cc2cc1NC(=O)c1cnn2ccc(N3CCOCC3)nc12 (stereo partly drawn) [TM-27]	9.53	46.8
COc1cc2nn([C@H]3CC[C@H](CN4CCN(c5cccc6c5c(C)nn6C5CCC(=O)NC5=O)CC4)CC3)cc2cc1NC(=O)c1cnn2ccc(N3CCOCC3)nc12 (stereo partly drawn) [TM-28]		23.3
COc1cc2nn([C@H]3CC[C@H](CN4CCN(c5cccc6c5c(C)nn6C5CCC(=O)NC5=O)CC4)CC3)cc2cc1NC(=O)c1cccc(C(F)(F)F)n1 (stereo partly drawn) [TM-29]		56.3
COc1cc2nn([C@H]3CC[C@H](CN4CCN(c5cccc6c5c(C)nn6C5CCC(=O)NC5=O)CC4)CC3)cc2cc1NC(=O)c1cnn2cccnc12 (stereo partly drawn) [TM-30]	3.69	
COc1cc2nn([C@H]3CC[C@H](CN4CCN(c5cccc6c5c(C)nn6C5CCC(=O)NC5=O)CC4)CC3)cc2cc1NC(=O)c1cccc(C)n1 (stereo partly drawn) [TM-32]	22.2	
COc1cc2nn([C@H]3CC[C@H](CN4CC5CN(c6cccc7c6c(C)nn7C6CCC(=O)NC6=O)CC5C4)CC3)cc2cc1NC(=O)c1cccc(C)n1 (stereo partly drawn) [TM-35]	29.5	
COc1cc2nn([C@H]3CC[C@H](CN4CC5CN(c6cccc7c6c(C)nn7C6CCC(=O)NC6=O)CC5C4)CC3)cc2cc1NC(=O)c1cccc(C(F)(F)F)n1 (stereo partly drawn) [TM-36]	4.99	
COc1cc2nn([C@H]3CC[C@H](CN4CC5CN(c6cccc7c6c(C)nn7C6CCC(=O)NC6=O)CC5C4)CC3)cc2cc1NC(=O)c1cnn2cccnc12 (stereo partly drawn) [TM-37]	4.99	
COc1cc2nn([C@H]3CC[C@H](CN4CC5CN(c6ccc7c(c6)c(C)nn7C6CCC(=O)NC6=O)CC5C4)CC3)cc2cc1NC(=O)c1cccc(C(F)(F)F)n1 (stereo partly drawn) [TM-39]	115	
Cc1nn(C2CCC(=O)NC2=O)c2ccc(N3CC4CN(C[C@H]5CC[C@H](n6cc7cc(NC(=O)c8cnn9cccnc89)c(N8CCOCC8)cc7n6)CC5)CC4C3)cc12 (stereo partly drawn) [TM-40]	138	
Cc1nn(C2CCC(=O)NC2=O)c2cccc(N3CCN(C[C@H]4CC[C@H](n5cc6cc(NC(=O)c7cnn8cccnc78)c(N7C[C@@H]8C[C@H]7CO8)cc6n5)CC4)CC3)c12 (stereo partly drawn) [TM-45]	5.48	
Cc1nn(C2CCC(=O)NC2=O)c2cccc(N3CC4CN(C[C@H]5CC[C@H](n6cc7cc(NC(=O)c8cnn9cccnc89)c(N8C[C@@H]9C[C@H]8CO9)cc7n6)CC5)CC4C3)c12 (stereo partly drawn) [TM-46]		46.8
Cc1nn(C2CCC(=O)NC2=O)c2cccc(N3CCN(C[C@H]4CC[C@H](n5cc6cc(NC(=O)c7cnn8cccnc78)c(N7CCOC8(CC8)C7)cc6n5)CC4)CC3)c12 (stereo partly drawn) [TM-47]	45.8	
Cc1nn(C2CCC(=O)NC2=O)c2cccc(N3CC4CN(C[C@H]5CC[C@H](n6cc7cc(NC(=O)c8cnn9cccnc89)c(N8CCOC9(CC9)C8)cc7n6)CC5)CC4C3)c12 (stereo partly drawn) [TM-48]	47.8	
Cc1nn(C2CCC(=O)NC2=O)c2cccc(N3CCN(C[C@H]4CC[C@H](n5cc6cc(NC(=O)c7cnn8cccnc78)c(C(F)F)cc6n5)CC4)CC3)c12 (stereo partly drawn) [TM-49]	16.5	
Cc1nn(C2CCC(=O)NC2=O)c2cccc(N3CC4CN(C[C@H]5CC[C@H](n6cc7cc(NC(=O)c8cnn9cccnc89)c(C(F)F)cc7n6)CC5)CC4C3)c12 (stereo partly drawn) [TM-50]	3.81	
Cc1nn(C2CCC(=O)NC2=O)c2cccc(N3CCC(CN4CCC(n5cc6cc(NC(=O)c7cnn8cccnc78)c(N7CCOCC7)cc6n5)CC4)CC3)c12 (stereo not drawn) [TM-51]	9.15	
Cc1nn(C2CCC(=O)NC2=O)c2cccc(N3CCN(C[C@H]4CC[C@H](n5cc6cc(NC(=O)c7cnn8cccnc78)c(N7CCO[C@@H](C)C7)cc6n5)CC4)CC3)c12 (stereo partly drawn) [TM-52]	10.5	

Structure (SMILES)	IC50 [1] [nM]	IC50 [2] [nM]
Cc1nn(C2CCC(=O)NC2=O)c2cccc(N3CC4CN(C[C@H]5CC[C@H](n6cc7cc(NC(=O)c8cnn9cccnc89)c(N8CCO[C@@H](C)C8)cc7n6)CC5)CC4C3)c12 (stereo partly drawn) [TM-53]	38.5	
Cc1nn(C2CCC(=O)NC2=O)c2cccc(N3CCN(C[C@H]4CC[C@H](n5cc6cc(NC(=O)c7cnn8cccnc78)c(N7CCO[C@H](C)C7)cc6n5)CC4)CC3)c12 (stereo partly drawn) [TM-54]	6.29	4.26
Cc1nn(C2CCC(=O)NC2=O)c2cccc(OC3CCN(C[C@H]4CC[C@H](N5Cc6cc(NC(=O)c7cnn8cccnc78)c(N7CCOCC7)cc6C5=O)CC4)CC3)c12 (stereo partly drawn) [TM-60]	4.4	
Cc1nn(C2CCC(=O)NC2=O)c2cccc(N3CC4CN(C[C@H]5CC[C@H](n6cc7cc(NC(=O)c8cnn9cccnc89)c(N8C[C@H]9C[C@@H]8CO9)cc7n6)CC5)CC4C3)c12 (stereo partly drawn) [TM-62]	11.9	
Cc1nn(C2CCC(=O)NC2=O)c2cccc(N3CCN(C[C@H]4CC[C@H](N5Cc6cc(NC(=O)c7cnn8cccnc78)c(N7CCO[C@H](C)C7)cc6C5=O)CC4)CC3)c12 (stereo partly drawn) [TM-63]	0.9	
Cc1nn(C2CCC(=O)NC2=O)c2cccc(N3CCN(C[C@H]4CC[C@H](N5Cc6cc(NC(=O)c7cnn8cccnc78)c(N(C)C)cc6C5=O)CC4)CC3)c12 (stereo partly drawn) [TM-65]	7.15	
Cc1nn(C2CCC(=O)NC2=O)c2cccc(N3CCC(CN4CCC(N5Cc6cc(NC(=O)c7cnn8cccnc78)c(N7CCOCC7)cc6C5=O)CC4)CC3)c12 (stereo not drawn) [TM-67]	52.8	
Cc1nn(C2CCC(=O)NC2=O)c2cccc(N3CCC(CN4CCC(N5Cc6cc(NC(=O)c7cnn8cccnc78)c(N7CCCOCC7)cc6C5=O)CC4)CC3)c12 (stereo not drawn) [TM-68]	3.23	
Cc1nn(C2CCC(=O)NC2=O)c2cccc(N3CCC(CN4CCC(N5Cc6cc(NC(=O)c7cnn8cccnc78)c(N7CCO[C@H](C)C7)cc6C5=O)CC4)CC3)c12 (stereo partly drawn) [TM-69]	22.9	
Cc1nn(C2CCC(=O)NC2=O)c2cccc(N3CCN(C[C@H]4CC[C@H](n5cc6cc(NC(=O)c7cnn8cccnc78)c(N(C)C)cc6n5)CC4)CC3)c12 (stereo partly drawn) [TM-70]	1.18	
Cc1nn(C2CCC(=O)NC2=O)c2cccc(N3CCC(CN4CCC(n5cc6cc(NC(=O)c7cnn8cccnc78)c(N(C)C)cc6n5)CC4)CC3)c12 (stereo not drawn) [TM-71]	24.9	
Cc1nn(C2CCC(=O)NC2=O)c2cccc(N3CCC(CN4CCC(n5cc6cc(NC(=O)c7cnn8cccnc78)c(N7CCO[C@H](C)C7)cc6n5)CC4)CC3)c12 (stereo partly drawn) [TM-72]	6.82	
Cc1nn(C2CCC(=O)NC2=O)c2cccc(N3CCN(C[C@H]4CC[C@H](n5cc6cc(NC(=O)c7cnn8cccnc78)c(N7CCOC[C@H]7C)cc6n5)CC4)CC3)c12 (stereo partly drawn) [TM-73]	43.8	
Cc1nn(C2CCC(=O)NC2=O)c2cccc(N3CCN(C[C@H]4CC[C@H](n5cc6cc(NC(=O)c7cnn8cccnc78)c(N7CCOC[C@@H]7C)cc6n5)CC4)CC3)c12 (stereo partly drawn) [TM-74]	29.4	
Cc1nn(C2CCC(=O)NC2=O)c2cccc(N3CCN(C[C@H]4CC[C@H](n5cc6cc(NC(=O)c7cnn8cccnc78)c(N7CCCOCC7)cc6n5)CC4)CC3)c12 (stereo partly drawn) [TM-79]	39	
Cc1nn(C2CCC(=O)NC2=O)c2cccc(N3CCC(CN4CCC(n5cc6cc(NC(=O)c7cnn8cccnc78)c(N7CCCOCC7)cc6n5)CC4)CC3)c12 (stereo not drawn) [TM-82]	36.5	
Cc1nn(C2CCC(=O)NC2=O)c2ccnc(N3CCN(C[C@H]4CC[C@H](n5cc6cc(NC(=O)c7cnn8cccnc78)c(N(C)C)cc6n5)CC4)CC3)c12 (stereo partly drawn) [TM-103]	0.72	
Cc1nn(C2CCC(=O)NC2=O)c2nccc(N3CCC4(CC3)CN(CC3CCC(n5cc6cc(NC(=O)c7cnn8cccnc78)c(N(C)C)cc6n5)CC3)C4)c12 (stereo not drawn) [TM-114]	4.79	
